The text below walks through data of DBAASP.

Test systems include Staphylococcus aureus; Bacillus cereus; Escherichia coli.
What all share (assay): ≥ marks a high value that may be exact or a test limit, other limits are often not marked, values filed in µg/mL are converted to µM
Test [1] deals with Staphylococcus aureus ATCC 29213.
The test system of test [2] is Escherichia coli ATCC 25922.
The subject of test [3] is Pseudomonas aeruginosa ATCC 27853.
Test [4] concerns Candida albicans ATCC 2002.

Values after ≈ are worked out from the molar mass of the structure shown.

Consider `CC[C@H](C)[C@H](NC(=O)[C@H](CCCN=C(N)N)NC(=O)[C@H](CCC(N)=O)NC(=O)[C@H](CCC(N)=O)NC(=O)[C@@H](NC(=O)[C@H](CCCN=C(N)N)NC(=O)[C@H](CCCCN)NC(=O)[C@@H](N)Cc1ccccc1)[C@@H](C)CC)C(=O)N[C@@H](CCCCN)C(=O)N[C@@H](CC(=O)O)C(=O)N[C@@H](Cc1ccccc1)C(=O)N[C@@H](CC(C)C)C(=O)N[C@@H](CCCN=C(N)N)C(=O)O` [FKRIQQRIKDFLR], for which the MIC (in general, the least concentration at which growth counts as inhibited) in test [1] was > 40 µM; in test [2], 5 µM (≈ 8.74 µg/mL).
On to `CC[C@H](C)[C@H](NC(=O)[C@H](CCSC)NC(=O)[C@H](C)NC(=O)[C@@H]1CCCN1C(=O)[C@@H](NC(=O)[C@@H](NC(=O)[C@H](CCCCN)NC(=O)[C@@H](NC(=O)[C@H](CC(C)C)NC(=O)CNC(=O)CNC(=O)[C@H](CC(C)C)NC(=O)[C@@H](N)Cc1ccccc1)[C@@H](C)CC)[C@@H](C)CC)C(C)C)C(=O)N[C@@H](CS)C(=O)N[C@@H](C)C(=O)N[C@H](C(=O)N[C@H](C(=O)N[C@@H](CCCCN)C(=O)N[C@@H](CCCCN)C(=O)O)[C@@H](C)O)C(C)C` [FLGGLIKIVPAMICAVTKK], for which the MIC was determined as 63.9 µM (≈ 128 µg/mL) in test [1], 63.9 µM (≈ 128 µg/mL) in test [3] and 128 µM (≈ 256 µg/mL) in test [2].
Take `CC(C)C[C@H](NC(=O)[C@H](CCCCN)NC(=O)[C@H](Cc1ccccc1)NC(=O)[C@@H](NC(=O)CNC(=O)CNC(=O)[C@H](CC(C)C)NC(=O)[C@@H](N)Cc1ccccc1)C(C)C)C(=O)N[C@@H](C)C(=O)N[C@@H](CO)C(=O)N[C@@H](CCCCN)C(=O)N[C@H](C(=O)N[C@@H](Cc1ccccc1)C(=O)N1CCC[C@H]1C(=O)N[C@@H](C)C(=O)N[C@H](C(=O)N[C@@H](Cc1ccccc1)C(=O)NCC(=O)N[C@@H](CCCCN)C(=O)N[C@H](C(=O)O)C(C)C)C(C)C)C(C)C` [FLGGVFKLASKVFPAVFGKV]: the MIC in the test on Staphylococcus aureus was 30.3 µM (≈ 64 µg/mL); against Bacillus cereus it was 15.2 µM (≈ 32 µg/mL); against Escherichia coli it was 30.3 µM (≈ 64 µg/mL).
For `CC(C)C[C@H](NC(=O)[C@@H](N)Cc1ccccc1)C(=O)NCC(=O)N[C@H](C(=O)N[C@H](C(=O)N[C@@H](Cc1ccccc1)C(=O)N[C@@H](CCCCN)C(=O)N[C@@H](CCCCN)C(=O)N[C@@H](C)C(=O)N[C@@H](CO)C(=O)N[C@@H](CCCCN)C(=O)N[C@H](C(=O)N[C@@H](Cc1ccccc1)C(=O)N1CCC[C@H]1C(=O)N[C@@H](CCCCN)C(=O)N[C@H](C(=O)N[C@@H](Cc1ccccc1)C(=O)NCC(=O)N[C@@H](CCCCN)C(=O)N[C@H](C(=O)O)C(C)C)C(C)C)C(C)C)C(C)C)C(C)C` [FLGVVFKKASKVFPKVFGKV], the MIC was > 57.5 µM in the test on Staphylococcus aureus, ≥ 57.5 µM in the test with Bacillus cereus and 57.5 µM (≈ 128 µg/mL) against Escherichia coli.
For `CC(C)C[C@H](NC(=O)[C@H](CCCCN)NC(=O)[C@H](Cc1ccccc1)NC(=O)[C@@H](NC(=O)[C@@H](NC(=O)CNC(=O)[C@H](CC(C)C)NC(=O)[C@@H](N)Cc1ccccc1)C(C)C)C(C)C)C(=O)N[C@@H](C)C(=O)N[C@@H](CO)C(=O)N[C@@H](CCCCN)C(=O)N[C@H](C(=O)N[C@@H](Cc1ccccc1)C(=O)N1CCC[C@H]1C(=O)N[C@@H](C)C(=O)N[C@H](C(=O)N[C@@H](Cc1ccccc1)C(=O)NCC(=O)N[C@@H](CCCCN)C(=O)N[C@H](C(N)=O)C(C)C)C(C)C)C(C)C` [FLGVVFKLASKVFPAVFGKV], in that order: 1.86 µM (≈ 4 µg/mL), 7.43 µM (≈ 16 µg/mL) and 29.7 µM (≈ 64 µg/mL).
Regarding `CC[C@H](C)[C@H](NC(=O)[C@H](CCCN=C(N)N)NC(=O)CNC(=O)[C@@H](NC(=O)[C@H](Cc1ccccc1)NC(=O)[C@@H]1CCCN1C(=O)[C@H](CC(C)C)NC(=O)[C@@H](N)Cc1ccccc1)C(C)C)C(=O)N[C@@H](C)C(=O)N[C@@H](CO)C(=O)N[C@@H](CCCCN)C(=O)N[C@H](C(=O)N[C@H](C(=O)N1CCC[C@H]1C(=O)N[C@@H](CO)C(=O)N[C@H](C(=O)N[C@H](C(=O)NCC(=O)N[C@@H](CCCCN)C(=O)N[C@H](C(=O)O)C(C)C)[C@@H](C)CC)C(C)C)C(C)C)C(C)C` [FLPFVGRIASKVVPSVIGKV], the MIC was ≥ 121 µM against Bacillus cereus and > 121 µM against Escherichia coli.
For the compound `CC[C@H](C)[C@H](NC(=O)[C@H](CO)NC(=O)[C@H](CCCCN)NC(=O)[C@@H](NC(=O)[C@@H](NC(=O)[C@@H](NC(=O)[C@@H](NC(=O)[C@H](CCCCN)NC(=O)[C@@H](NC(=O)[C@@H](NC(=O)[C@@H](N)CCCCN)[C@@H](C)CC)C(C)C)C(C)C)[C@@H](C)CC)[C@@H](C)O)C(C)C)C(=O)N[C@@H](CO)C(=O)N1CCC[C@H]1C(=O)N[C@@H](C)C(=O)N[C@@H](CO)C(=O)N[C@@H](CC(C)C)C(=O)N[C@H](C(=O)N1CCC[C@H]1C(=O)N[C@H](C(=O)N[C@@H](Cc1ccccc1)C(=O)O)C(C)C)C(C)C` [KIVKVITVKSISPASLVPVF], the MIC in the test with Bacillus cereus is ≥ 60.2 µM; against Escherichia coli, > 60.2 µM.
In the case of `CC(=O)N[C@@H](CCCCN)C(=O)N[C@@H](CC(C)C)C(=O)N[C@@H](CC(C)C)C(=O)N[C@@H](CCCCN)C(=O)N[C@@H](CC(C)C)C(=O)N[C@@H](CC(C)C)C(=O)N[C@@H](CCCCN)C(=O)N[C@@H](CCCCN)C(=O)N[C@@H](CC(C)C)C(=O)N[C@@H](CC(C)C)C(=O)N[C@@H](CCCCN)C(=O)N[C@@H](CC(C)C)C(=O)N1CCC[C@H]1C(=O)N[C@@H](CCCCN)C(N)=O` [KLLKLLKKLLKLPK], the results for the MIC in test [1] and in test [2] were 10 µM (≈ 17.2 µg/mL) and 14.1 µM (≈ 24.3 µg/mL), respectively.
For `CC(C)C[C@H](NC(=O)[C@H](CC(C)C)NC(=O)[C@H](CCCCN)NC(=O)[C@H](CCCCN)NC(=O)[C@H](CC(C)C)NC(=O)[C@H](CC(C)C)NC(=O)[C@H](CCCCN)NC(=O)[C@H](CC(C)C)NC(=O)[C@H](CC(C)C)NC(=O)[C@H](CCCCN)NC(=O)[C@H](CCCCN)NC(=O)[C@@H](N)CC(C)C)C(=O)N[C@@H](CCCCN)C(=O)N[C@@H](C)C(=O)N[C@@H](C)C(=O)NCC(=O)O` [LKKLLKLLKKLLKAAG] the same measures were 10 µM (≈ 17.8 µg/mL) and 10 µM (≈ 17.8 µg/mL).
For the compound `CC[C@H](C)[C@H](NC(=O)[C@H](CCCCN)NC(=O)[C@H](Cc1ccccc1)NC(=O)[C@@H](NC(=O)[C@H](C)NC(=O)[C@@H]1CCCN1)C(C)C)C(=O)N[C@@H](C)C(=O)N[C@@H](CO)C(=O)N[C@@H](CCCCN)C(=O)N[C@H](C(=O)N[C@H](C(=O)N1CCC[C@H]1C(=O)N[C@@H](CO)C(=O)N[C@H](C(=O)N[C@@H](Cc1ccc(O)cc1)C(=O)N[C@@H](CS)C(=O)N[C@@H](CCCCN)C(=O)N[C@H](C(=O)N[C@@H](CO)C(=O)N[C@@H](CCCN=C(N)N)C(=O)O)C(C)C)C(C)C)C(C)C)C(C)C` [PAVFKIASKVVPSVYCKVSR], the MIC against Bacillus cereus was ≥ 118 µM; with Escherichia coli, 58.8 µM (≈ 128 µg/mL).
Consider `CC[C@H](C)[C@H](NC(=O)[C@H](C)NC(=O)[C@H](CCCCN)NC(=O)[C@@H](N)CCC(N)=O)C(=O)N[C@@H](CCCN=C(N)N)C(=O)N[C@H](C(=O)N[C@@H](CCCN=C(N)N)C(=O)N[C@@H](CC(C)C)C(=O)N[C@@H](CO)C(=O)N[C@@H](C)C(=O)O)C(C)C` [QKAIRVRLSA], for which the values for the MIC in test [1], in test [3] and in test [2] were > 56.1 µM, 7.01 µM (≈ 8 µg/mL) and 7.01 µM (≈ 8 µg/mL), respectively.
With `CC[C@H](C)[C@H](NC(=O)[C@H](CCCCN)NC(=O)[C@H](CCCCN)NC(=O)[C@@H](N)CCC(N)=O)C(=O)N[C@@H](CCCN=C(N)N)C(=O)N[C@@H](C)C(=O)N[C@@H](CCCN=C(N)N)C(=O)N[C@@H](CC(C)C)C(=O)N[C@@H](CO)C(=O)N[C@@H](C)C(=O)O` [QKKIRARLSA], the MIC in test [1], in test [3] and in test [2] was > 54.7 µM throughout.
As to `CC[C@H](C)[C@H](NC(=O)[C@@H](NC(=O)[C@@H](NC(=O)[C@@H]1CCCN1C(=O)[C@H](Cc1c[nH]c2ccccc12)NC(=O)[C@H](Cc1ccccc1)NC(=O)[C@H](CCCN=C(N)N)NC(=O)[C@H](CCCCN)NC(=O)[C@@H](NC(=O)[C@@H](N)CCCN=C(N)N)[C@@H](C)CC)C(C)C)C(C)C)C(=O)N[C@@H](CCCN=C(N)N)C(=O)N[C@H](C(=O)N[C@H](C(=O)N[C@H](C(=O)N[C@@H](C)C(=O)NCC(=O)N[C@@H](Cc1ccc(O)cc1)C(=O)N[C@@H](CC(N)=O)C(=O)N[C@@H](CC(C)C)C(=O)N[C@@H](Cc1ccc(O)cc1)C(=O)N[C@@H](CCCN=C(N)N)C(=O)O)C(C)C)C(C)C)[C@@H](C)O` [RIKRFWPVVIRTVVAGYNLYR], the MIC in test [4] and in test [2] was 3.6 µM (≈ 9.38 µg/mL) each time.
Regarding `NC(=O)[C@H](Cc1ccccc1)NC(=O)[C@H](Cc1ccccc1)NC(=O)[C@H](Cc1ccccc1)NC(=O)[C@H](Cc1ccccc1)NC(=O)[C@@H]1CCCN1C(=O)[C@H](CCCN=C(N)N)NC(=O)[C@@H]1CCCN1C(=O)[C@H](CCCN=C(N)N)NC(=O)[C@@H]1CCCN1C(=O)[C@H](CCCN=C(N)N)NC(=O)[C@@H]1CCCN1C(=O)[C@H](CCCN=C(N)N)NC(=O)[C@@H](N)CCCN=C(N)N` [RRPRPRPRPFFFF], the MIC in test [1] is 20 µM (≈ 35.5 µg/mL); in test [3], 40 µM (≈ 71 µg/mL); in test [2], 80 µM (≈ 142 µg/mL).
`CC(C)[C@H](NC(=O)[C@H](Cc1c[nH]c2ccccc12)NC(=O)[C@H](Cc1c[nH]c2ccccc12)NC(=O)[C@@H](N)CCCN=C(N)N)C(=O)N[C@@H](C)C(=O)N[C@@H](Cc1c[nH]c2ccccc12)C(=O)N[C@@H](CCCN=C(N)N)C(=O)N[C@@H](CC(N)=O)C(=O)N[C@@H](CCCN=C(N)N)C(=O)O` [RWWVAWRNR]: the MIC is 94 µM (≈ 125 µg/mL) in test [1] and 47 µM (≈ 62.5 µg/mL) in test [2].
For `CC[C@H](C)[C@H](NC(=O)[C@@H](NC(=O)[C@H](C)NC(=O)[C@H](CCCN=C(N)N)NC(=O)[C@H](CC(N)=O)NC(=O)[C@H](Cc1ccccc1)NC(=O)[C@H](CO)NC(=O)[C@@H](N)C(C)C)C(C)C)C(=O)N[C@@H](Cc1cnc[nH]1)C(=O)N[C@@H](CO)C(=O)N[C@@H](CC(C)C)C(=O)N[C@@H](CC(C)C)C(=O)NCC(N)=O` [VSFNRAVIHSLLG] the same measures were > 496 µM and > 496 µM.
